The text below walks through data of ChEMBL document CHEMBL1201862, “PubChem BioAssay data set” (2004).

In assay [1] the target is T1, Methionyl-tRNA synthetase, putative (Trypanosoma brucei brucei, UniProt Q38C91).
T1 sequence (Q38C91 whole entry): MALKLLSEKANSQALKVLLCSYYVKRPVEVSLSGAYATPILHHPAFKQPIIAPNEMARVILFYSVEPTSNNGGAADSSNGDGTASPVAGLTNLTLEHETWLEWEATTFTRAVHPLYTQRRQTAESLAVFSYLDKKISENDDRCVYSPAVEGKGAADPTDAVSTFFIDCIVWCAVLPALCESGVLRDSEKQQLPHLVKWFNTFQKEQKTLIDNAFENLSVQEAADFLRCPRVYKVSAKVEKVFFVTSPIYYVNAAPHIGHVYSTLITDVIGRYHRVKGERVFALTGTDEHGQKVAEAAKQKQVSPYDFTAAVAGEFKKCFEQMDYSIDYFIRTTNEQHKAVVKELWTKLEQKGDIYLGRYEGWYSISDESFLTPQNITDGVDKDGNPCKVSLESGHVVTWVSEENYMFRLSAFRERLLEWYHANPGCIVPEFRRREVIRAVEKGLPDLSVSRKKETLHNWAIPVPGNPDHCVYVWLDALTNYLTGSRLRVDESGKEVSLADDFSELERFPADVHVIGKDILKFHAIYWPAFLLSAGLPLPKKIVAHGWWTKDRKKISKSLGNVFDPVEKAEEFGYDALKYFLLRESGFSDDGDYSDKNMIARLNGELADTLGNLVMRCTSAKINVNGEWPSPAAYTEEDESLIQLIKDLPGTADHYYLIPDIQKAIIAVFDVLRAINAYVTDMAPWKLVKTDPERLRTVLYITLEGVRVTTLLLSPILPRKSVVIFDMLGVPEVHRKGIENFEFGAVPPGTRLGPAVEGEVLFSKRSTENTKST
It is filed as functional, Trypanosoma brucei brucei strain 927/4 GUTat10.1.

A short description of assay [2]: Late stage counterscreen for inhibitors of Trypanosoma brucei methionyl tRNA synthetase (MetRS): Luminescence-based cell-based high throughput dose response assay to identify compounds that are cytotoxic to Jurkat human T lymphocyte cells. It is filed as functional. In general terms: Counterscreens check selectivity or assay interference.
Assay [3] is described as follows: Counterscreen for inhibitors of Trypanosoma brucei methionyl tRNA synthetase (MetRS): Luminescence-based cell-based high throughput dose response assay to identify compounds that are cytotoxic to Jurkat human T lymphocyte cells. It is filed as functional.
Assay [4] concerns the target T1, Methionyl-tRNA synthetase, putative. It is filed as functional, Trypanosoma brucei brucei strain 927/4 GUTat10.1. The source holds these as a separate data set.
Assay [5] is described as follows: IC50 of insulin release inhibition, rat insulinoma INS-1E line, 5 mM glucose, cell-based (AID 1117331). It is filed as functional.
Assay [6] in a line: cells. It is filed as functional, cell-based. To be noted: INS-1E.
A short description of assay [7]: cells. The conditions noted are these: A549.
Assay [8] deals with T2, Corticotropin-releasing factor receptor 2/Corticotropin-releasing factor-binding protein (Homo sapiens, UniProt P24387+Q13324).
T2 sequence (Q13324 whole entry): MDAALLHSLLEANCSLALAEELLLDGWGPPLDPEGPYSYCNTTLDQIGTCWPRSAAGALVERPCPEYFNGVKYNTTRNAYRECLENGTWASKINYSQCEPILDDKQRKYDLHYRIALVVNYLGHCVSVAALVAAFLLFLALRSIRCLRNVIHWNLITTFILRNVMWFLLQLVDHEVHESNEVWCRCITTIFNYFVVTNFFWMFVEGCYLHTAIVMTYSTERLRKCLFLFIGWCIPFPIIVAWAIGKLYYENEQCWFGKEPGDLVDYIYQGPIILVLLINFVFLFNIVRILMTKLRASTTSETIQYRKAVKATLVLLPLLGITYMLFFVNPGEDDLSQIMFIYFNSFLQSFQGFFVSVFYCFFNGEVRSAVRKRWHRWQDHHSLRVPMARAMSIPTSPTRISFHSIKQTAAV
T2 sequence (P24387 whole entry): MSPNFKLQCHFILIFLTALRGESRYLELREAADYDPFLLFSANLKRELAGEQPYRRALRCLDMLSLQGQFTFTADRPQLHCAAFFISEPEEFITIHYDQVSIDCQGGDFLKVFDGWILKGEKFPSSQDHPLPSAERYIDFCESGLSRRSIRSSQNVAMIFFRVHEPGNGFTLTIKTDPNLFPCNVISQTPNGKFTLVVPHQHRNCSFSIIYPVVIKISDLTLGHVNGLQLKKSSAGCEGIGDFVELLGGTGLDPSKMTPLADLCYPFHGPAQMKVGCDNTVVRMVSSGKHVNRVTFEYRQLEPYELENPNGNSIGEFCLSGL
Description: activators of CRF receptor 2 with binding protein – uHTS hits, confirmation (AID 602473). The conditions noted are these: read-out: EC50_Mean. It is filed as functional.

Assay [9] in a line: viability loss in HepG2 liver cells – cell-based, ATP luminescence, cherry-pick, set 6, cytotoxicity control, dose response (AID 1053125). It is filed as functional.
The nature of assay [10]: Late stage assay provider results from the probe development effort to identify inhibitors of the Plasmodium falciparum M18 Aspartyl Aminopeptidase (M18AAP): radiolabel-based cell-based dose response assay to identify compounds that inhibit P. falciparum growth in RBCs, Set 2.. It is filed as functional.
Assay [11] can be described thus: toxicity toward immortalized ovarian surface epithelium – cell-based, plate reader, dry powder samples, cytotoxicity control for PAX8 inhibitor project, dose response (AID 743045). It is filed as functional.
A further assay addresses Paired box protein Pax-8 (Homo sapiens, UniProt Q06710). Briefly: PAX8 transcriptional activity inhibition in RMG-I – RMG-I cells, luciferase, cherry-pick, dose response (AID 687027).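 Note: luciferase reporter driven by Pax8 target thyroperoxidase promoter measured by SteadyGlo luminescence.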 It is filed as functional, cell-based.
The nature of assay [12]: OVCAR-3 cell viability loss – plate reader, dry powder samples, PAX8 inhibitor project, dose response (AID 743044). It is filed as functional, cell-based.
Assay [13] is described as follows: IGROV1 cell killing – plate reader, dry powder samples, PAX8 inhibitor project, dose response (AID 743043). It is filed as functional, cell-based. To be noted: IGROV-1.
Assay [14] can be described thus: A2780 cell killing – plate reader, dry powder samples, cytotoxicity control, dose response (AID 743046). It is filed as functional, cell-based.
The nature of assay [15]: ATP-based viability loss in HepG2 cells – cell-based, CellTiter-Glo luminescence, dry powder, set 3, cytotoxicity control, dose response (AID 720594). It is filed as functional. (In ATP-based viability assays light output follows the ATP content of the culture.)
Assay [16] can be described thus: ATP-based viability loss in HEK293T cells – cell-based, CellTiter-Glo luminescence, dry powder, set 2, cytotoxicity control, dose response (AID 720595). The conditions noted are these: HEK293. It is filed as functional.
The nature of assay [17]: P. falciparum Dd2 growth inhibitors, dose response, SYBR Green, cherry-picked samples (AID 1159567). It is filed as functional, cell-based.
Assay [18] is described as follows: toxicity to human hepatoma HepG2 cells – cell-based, cherry-picked samples, cytotoxicity control, dose response (AID 1159577). It is filed as functional.
Assay [19] is described as follows: Luminescence-based cell-based high throughput dose response assay to identify activators of the DAF-12 from the parasite S. stercoralis (ssDAF-12). It is filed as functional.
The target in assay [20] is T3, Oxysterols receptor LXR-beta (Homo sapiens, UniProt P55055).
T3 sequence (P55055 whole entry): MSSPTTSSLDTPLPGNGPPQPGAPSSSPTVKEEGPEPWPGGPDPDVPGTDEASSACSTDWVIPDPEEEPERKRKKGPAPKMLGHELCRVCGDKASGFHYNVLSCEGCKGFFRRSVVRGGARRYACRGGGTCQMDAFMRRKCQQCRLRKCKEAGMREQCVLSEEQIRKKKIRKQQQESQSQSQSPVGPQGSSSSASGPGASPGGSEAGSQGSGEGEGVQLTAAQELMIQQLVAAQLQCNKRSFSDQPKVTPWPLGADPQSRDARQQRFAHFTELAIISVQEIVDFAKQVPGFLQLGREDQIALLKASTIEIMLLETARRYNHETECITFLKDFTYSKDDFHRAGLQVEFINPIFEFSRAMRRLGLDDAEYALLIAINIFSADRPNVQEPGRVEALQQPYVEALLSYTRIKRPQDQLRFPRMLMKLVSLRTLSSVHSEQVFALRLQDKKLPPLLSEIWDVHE
It is filed as functional, cell-based.

For the next assay, the target named is T4, Protein skinhead-1 (Caenorhabditis elegans, UniProt P34707).
T4 sequence (P34707 whole entry): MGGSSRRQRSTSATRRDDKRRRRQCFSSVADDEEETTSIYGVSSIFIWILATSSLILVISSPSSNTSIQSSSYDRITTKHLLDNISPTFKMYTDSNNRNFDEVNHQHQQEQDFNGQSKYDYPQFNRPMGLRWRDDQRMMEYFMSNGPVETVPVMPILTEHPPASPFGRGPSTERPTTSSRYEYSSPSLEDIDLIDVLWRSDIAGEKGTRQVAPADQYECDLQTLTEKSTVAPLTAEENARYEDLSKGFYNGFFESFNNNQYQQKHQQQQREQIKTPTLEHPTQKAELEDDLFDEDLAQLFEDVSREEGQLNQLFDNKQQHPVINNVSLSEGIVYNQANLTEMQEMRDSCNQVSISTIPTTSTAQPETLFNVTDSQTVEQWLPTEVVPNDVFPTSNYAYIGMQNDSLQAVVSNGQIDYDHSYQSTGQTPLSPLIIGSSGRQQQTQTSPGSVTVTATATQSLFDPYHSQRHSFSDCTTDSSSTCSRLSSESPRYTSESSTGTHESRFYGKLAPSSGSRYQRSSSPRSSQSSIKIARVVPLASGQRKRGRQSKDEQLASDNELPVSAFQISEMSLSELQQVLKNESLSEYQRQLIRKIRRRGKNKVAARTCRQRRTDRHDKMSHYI
It is filed as functional.

For assay [21], the target named is T3, Oxysterols receptor LXR-beta. Briefly: LXR agonists, Gal4 luciferase reporter, dose response, counter-screen for ssDAF-12 agonist project, cell-based, luminescence, HEK293, S. stercoralis campaign (AID 720737). It is filed as functional. To be noted: read-out: IC50 (the source's name). In general terms: A reporter such as luciferase makes a cellular process visible.

Assay [22] has as its target G-protein coupled receptor 55 (Homo sapiens, UniProt Q9Y2T6). Briefly: selective activators of receptor GPR55 – imaging, U2OS cells, beta-arrestin-GFP redistribution, primary screen (AID 1961). It is filed as functional.
Assay [23] in a line: intracellular Chagas parasite inhibition in myoblasts – Tulahuen strain, L-6 host cells, dry powder, dose response (AID 651890). It is filed as functional, cell-based.
Assay [24] in a line: Trypanosoma cruzi replication inhibitors in host cells – cell-based, plate reader, dry powder samples, dose response (AID 651845). It is filed as functional.
Assay [25] can be described thus: antimalarial activity against erythrocytic parasites – NF54 strain, plate reader, dry powder, dose response (AID 651889). It is filed as functional, cell-based.
Assay [26] is described as follows: anti-trypanosomal activity in BESM host cells – imaging, CA-I/72 strain, bovine embryo skeletal muscle, dry powder, dose response (AID 651885). It is filed as functional, cell-based.
A short description of assay [27]: African trypanosome bloodstream form growth inhibition – STIB900 strain, plate reader, dry powder, dose response (AID 651894). It is filed as functional, cell-based.
A short description of assay [28]: antileishmanial activity on axenic amastigotes – plate reader, dry powder, dose response (AID 651892). It is filed as functional, cell-based.
A short description of assay [29]: T. cruzi growth inhibition in host cells, dose response, cell-based, plate reader, dry powder, set 2 (AID 652275). It is filed as functional.
The nature of assay [30]: host muscle cell viability loss – plate reader, dry powder, counter-screen for T. cruzi inhibitor project, dose response (AID 651895). It is filed as functional, cell-based.

Structures can show the parent of a compound that is named as a salt. The source made the active and inactive calls.

Sequence of G-protein coupled receptor 55 (Q9Y2T6 whole entry): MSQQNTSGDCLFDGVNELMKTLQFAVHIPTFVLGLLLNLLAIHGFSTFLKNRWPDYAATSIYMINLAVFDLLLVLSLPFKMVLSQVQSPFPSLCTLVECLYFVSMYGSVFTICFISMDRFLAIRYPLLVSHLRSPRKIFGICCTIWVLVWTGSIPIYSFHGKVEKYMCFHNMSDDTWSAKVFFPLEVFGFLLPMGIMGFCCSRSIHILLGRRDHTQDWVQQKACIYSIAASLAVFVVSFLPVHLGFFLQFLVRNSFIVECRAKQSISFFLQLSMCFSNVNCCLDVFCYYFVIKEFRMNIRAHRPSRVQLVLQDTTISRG
Sequence of Paired box protein Pax-8 (Q06710 whole entry): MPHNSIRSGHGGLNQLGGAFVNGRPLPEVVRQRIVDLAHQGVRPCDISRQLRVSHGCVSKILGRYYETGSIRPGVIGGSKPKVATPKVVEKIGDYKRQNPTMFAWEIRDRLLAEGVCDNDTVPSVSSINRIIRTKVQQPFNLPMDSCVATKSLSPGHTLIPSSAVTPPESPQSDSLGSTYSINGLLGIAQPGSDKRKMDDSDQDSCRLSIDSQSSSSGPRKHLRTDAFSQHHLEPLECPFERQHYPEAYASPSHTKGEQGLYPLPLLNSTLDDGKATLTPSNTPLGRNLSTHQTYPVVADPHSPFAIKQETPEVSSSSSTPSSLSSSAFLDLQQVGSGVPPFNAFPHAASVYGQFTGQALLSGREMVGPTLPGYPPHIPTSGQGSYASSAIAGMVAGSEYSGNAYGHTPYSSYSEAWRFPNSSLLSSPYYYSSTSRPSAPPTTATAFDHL

With `O=C(Nc1ccc(F)c(Cl)c1)C1CC(=O)n2c(nc3ccccc32)N1` (configuration not stated), the IC50 in assay [1] was 1.47 µM (active); in assay [2], > 83.3 µM (inactive); in [3] it was 83.3 µM (inactive); in [4], 2.34 µM (active).
For the compound `CN(C)CCC[C@@]1(c2ccc(F)cc2)OCc2cc(C#N)ccc21` [ESCITALOPRAM OXALATE], the IC50 is 5.45 µM (inactive) in assay [5] and > 33.3 µM (inactive) in “cells [6]”.
As to `CCCCCCc1cc2cc(S(=O)(=O)c3ccc(F)cc3)c(=O)oc2cc1O`, the AC50 in “cells [7]” is 42.1 µM (active); in assay [9], 50.4 µM (active). Also, in assay [8], the EC50 was > 53 µM (inactive).
`COc1ccc(CCNC2CCN(Cc3ccccc3)CC2)cc1OC`: the IC50 in assay [10] was 6.9 µM (active).
Consider `C[C@@H]1CN([C@H](C)CO)C(=O)c2cc(NC(=O)Nc3ccc(C(F)(F)F)cc3)ccc2O[C@@H](C)CCCCO[C@@H]1CN(C)Cc1ccncc1`, for which the AC50 in assay [11] is 56.4 µM (active); on Paired box protein Pax-8, 4.21 µM (active); in assay [12], 14.8 µM (active); in assay [13], 41.8 µM (active); in [14] it was 56.9 µM (active).
Regarding `CC1CCN(S(=O)(=O)c2ccc(C(=O)Nc3nnc(C4=COCCO4)o3)cc2)CC1`, the AC50 is > 52 µM (inactive) in assay [15] and 48.7 µM (active) in assay [16].
For the compound `OC[C@H]1Nc2ccc(-c3cccc(F)c3)cc2[C@@H]2[C@H]1CCN2Cc1ccc(F)cc1`, the AC50 in assay [17] is 4.27 µM (active); in [18] it was > 39 µM (inactive).
For `N=C(NOC(=O)c1cc(Br)ccc1Cl)c1ccccn1`, the IC50 in [19] was > 67.5 µM (inactive); on Protein skinhead-1 it was 41.8 µM (active). Also, the results for the EC50 in assay [20], in assay [21] and in assay [22] were > 67.5 µM (inactive), > 67.5 µM (inactive) and 31.4 µM (inactive), respectively.
With `C[C@@H]1CN([C@@H](C)CO)C(=O)c2cccc(NC(=O)c3ccncc3)c2O[C@@H]1CN(C)Cc1ccc(Oc2ccccc2)cc1`, the IC50 in [23] was 0.666 µM (active); in assay [25], 0.873 µM (inactive); in [26], 0.55 µM (active); in [27], 1.02 µM (inactive); in [28], > 100 µM (inactive); in assay [30], 47.6 µM (inactive). Besides, the results for the concentration at half-maximal activity (AC50) in [24] and in assay [29] were 0.506 µM (active) and 0.276 µM (active), respectively.

In general, IC50 refers to the concentration that inhibits the measured activity by half. As a reminder, the AC50 is the midpoint of the concentration-response curve, whichever way the signal moves.
